Source: US20250325531A1, “TREATMENT OF SYSTOLIC DYSFUNCTION” (MyoKardia, Inc., priority 2024, published 2025)
Several values for one entry are separate records, joined by “and”; a condition that tells them apart may be missing. Equal entries are not always repeated.

Legend:
Type in all cases: in vivo, human
[1] = system: patients with stable HFrEF; assay: TTE pharmacodynamics in MAD cohorts, patients with stable HFrEF; settings: plasma concentration group <2000 ng/mL (n = 30); LS mean difference vs placebo
Experimental: (§1) During the study, multiple evaluations were performed that included: serial TTE assessments (11-14 TTEs per patient on Days 1, 2, 3, 4, 7, 9, 10 and 11); PK sampling (PK sample collected concomitantly with every post-randomization echocardiogram); ECGs (on Days 2, 3, 4, 7, 9, 10, 11 and 16); troponin (collected concomitantly with every post-randomization ECG); and safety laboratory assessments. Confined patients underwent continuous telemetry. Holter monitoring was performed in all patients at baseline (Days 1-2) and at the end of double-blind treatment (Days 7-9). Vital signs were collected daily.
PD assessment was done by transthoracic echocardiography as described in Example 1 above. TTE evaluations of LVSV (derived from LVOT-VTI), LVEF, LVFS, SET, and other parameters were PD assessments at predetermined time points. The patients were on bed rest for 10 minutes before the TTEs were obtained. […]
The pharmacodynamic effects of Compound I on echocardiographic markers of cardiac structure and function were analyzed by Compound I plasma concentration groups: <2000 ng/mL (lower concentration group), 2000-3500 ng/ml (medium concentration group) and >3500 ng/ml (higher concentration group) (Table 16) and with PK-PD scatterplots (FIGS. 9A-9C). […]

healthy volunteers = assay: Safety and tolerability in food effect study, healthy volunteers; settings: 200 mg
Experimental: ECG was performed as described in Example 1. The following intervals were measured: RR, PR, QRS, and QT. Heart rate (HR) was calculated as […] (with RR expressed in msec) and rounded to the nearest integer. Each individual ECG QT value was corrected for HR. The measured QT data was corrected for HR using the Fridericia method (QTcF) as per the following formulae/method (with QT, RR and QTc expressed in ms): […]
The Investigator or designee monitored the continuous ECG telemetry data and correlated the finding(s) with any other clinical findings, study participant's medical history, study participant's clinical status and laboratory data to determine the clinical importance of the finding.
Serum troponin-I concentrations were determined as described in Example 1. Abnormal and/or rising troponin values (as per Investigator's judgment and taking into account potential Baseline troponin elevation) led to the subject being clinically evaluated for possible myocardial ischemia. […] The entire clinical context would be evaluated (e.g., signs, symptoms, new ECG changes, new troponin, and CK-MB abnormalities) and correlated with any other relevant clinical findings, the subject's medical history, and laboratory data to determine the clinical significance of the findings.

[2] = Pharmacokinetics of multiple ascending doses (MAD Cohorts A-D) in patients with stable HFrEF; settings: for Accumulation Index: estimated based λz and Tau
From the text: This was a randomized, parallel-group, DB, placebo-controlled, adaptive design, sequential ascending (oral) multiple-dose study in stable patients with heart failure. Four MAD Cohorts (A, B, C, D) were enrolled (FIG. 5B). An SRC reviewed results from each cohort and determined the dose and confirmed initial sample size for the subsequent cohort. Additionally, the first 3 patients in each cohort had LVEF ≥25%; the SRC reviewed preliminary safety data from these patients and decided whether to open cohort enrollment to patients with LVEF <25%.
After Screening and qualification, patients were confined to a clinical testing facility from Day 1 (Check-in) to Day 11. Each patient initially received placebo BID for 2 days (Days 1 and 2) in single-blinded manner (“run-in” during acclimatization to confinement in the Clinical Testing Unit) prior to receiving the randomized DB study drug treatment on Day 3. All patients then received either placebo or active Compound I for 7 days (Days 3 through 9), with a follow-up period with patients discharged from the unit on Day 11. A final follow-up clinic visit was conducted on Day 16. More than one patient could be dosed in a cohort at the same time or during the same week depending on administrative issues, i.e., capacity and scheduling.
Patients were dosed twice daily (every 12 hours). Doses could occur ±2 hours from scheduled dosing times as long as doses were separated by at least 10 hours and by no more than 14 hours. The exception to the twice daily dosing was on Day 9 (last dose of randomized DB study drug treatment). On Day 9, a single morning dose was administered.
as §1
Study medication consisted of Compound I 5 mg tablets, 25 mg tablets, 100 mg tablets, or matching placebo tablets. In Part 1 (SAD), Compound I or placebo was administered after an overnight fast (at least 6 hours), while in Part 2 (MAD), Compound I was administered after a 2 hour fast (Cohort A) or with food (Cohorts B, C, and D). The dose was ingested with a minimum of 240 mL of water, but more water was ingested as needed. The entire dose was administered over a period of up to 15 minutes. The time of dose used to determine future assessments was the time the last tablet was taken. In the cohorts for Part 2 (MAD), a BID regimen was used.
In Part 2 (MAD), Cohort A patients fasted for 2 hours before and 2 hours after dosing. For example, if morning dosing occurred at 8 AM, patients could have a snack at 6 AM and a full breakfast at 10 AM. If afternoon dosing occurred at 8 PM, patients could have dinner at 6 PM and a snack at 10 PM. […] Cohort B, C, and D patients ingested food with each dose.
A total of 40 subjects across 4 cohorts received 7 days of treatment with placebo or Compound I at doses of 50 mg (with food), 75 mg (1 cohort with food, 1 cohort with […]), or 100 mg (with food), BID (see FIG. 5B and Table 14).

[3] = MAD Cohort A (75 mg BID, 4 h fasting), individual subjects
[4] = MAD Cohort B (50 mg BID, with food), Mean
[5] = MAD Cohort C (75 mg BID, with food), individual subjects

**Q.** What does the source list for Cn1cc(S(=O)(=O)[C@@](C)(F)C2CCN(C(=O)Nc3ccon3)CC2)c(C(F)F)n1 [Compound I, (R)-4-(1-((3-(difluoromethyl)-1-methyl-1H-pyrazol-4-yl)sulfonyl)-1-fluoroethyl)-N-(isoxazol-3-yl) piperidine-1-carboxamide]?
**A.** E/e′ (lateral), mean change from baseline (placebo-corrected) [1]: 0.8; abnormal ECG results (healthy volunteers; fasted state): 3 (30.0%) n (%); drug-related headache, subjects (healthy volunteers; fasted state): 3 subjects; headache, subjects (healthy volunteers; fasted state): 4 subjects; Cardiac disorders, subjects (healthy volunteers; fasted state (1 sinus tachycardia and 1 ventricular tachycardia)): 2 subjects; abnormal ECG results (healthy volunteers; fed state): 2 (20.0%) n (%); drug-related headache, subjects (healthy volunteers; fed state): 1 subject; headache, subjects (healthy volunteers; fed state): 1 subject; Cardiac disorders, subjects (healthy volunteers; fed state (palpitations)): 1 subject; Steady-state (Day 9) post-dose maximum concentration ([2]; Cohort A + C (n = 14), 75 mg BID): 3862 (27.7%) ng/mL; Steady-state (Day 9) post-dose maximum concentration ([2]; Cohort B (n = 8), 50 mg BID): 2735 (17.5%) ng/mL; Steady-state (Day 9) post-dose maximum concentration ([2]; Cohort D (n = 6), 100 mg BID): 5560 (22.8%) ng/mL; Accumulation Index ([2]; MAD Cohort A (75 mg BID, 4 h fasting), Mean): 3.11; AUCtau, Day 1 [2, 3]: 10610 ng·h/mL; Accumulation Index [2, 3]: 3.82 and 3.89 and 2.79* and 2.21 and 3.00 and 2.61; Cmax, SS [2, 4]: 2771 ng/mL; Accumulation Index [2, 4]: 3.55; Accumulation Index ([2]; MAD Cohort B (50 mg BID, with food), individual subjects): 3.63 and 5.03 and 4.46 and 2.93 and 3.51 and 2.42 and 3.20 (2×) and 4.23*; Accumulation Index ([2]; MAD Cohort C (75 mg BID, with food), Mean): 3.18; AUCtau, Day 1 [2, 5]: 10560 ng·h/mL; Accumulation Index [2, 5]: 2.18 and 2.39 and 2.99 and 3.31 and 5.51 and 2.43 and 2.20 and 4.17 and 3.42; Accumulation Index ([2]; MAD Cohort D (100 mg BID, with food), Mean): 3.30; Accumulation Index ([2]; MAD Cohort D (100 mg BID, with food), individual subjects): 3.46 and 3.77 and 3.06 and 3.31 and 2.61 and 3.62
